Measurements published in ChEMBL document CHEMBL2203257 (Bioorg Med Chem Lett, 2012).

Key:
[1] = target: Calcium/calmodulin-dependent protein kinase type II subunit gamma (Homo sapiens, UniProt Q13555); assay: Inhibition of CAMK2G
[2] = target: Maternal embryonic leucine zipper kinase (Homo sapiens, UniProt Q14680); assay: Inhibition of MELK
[3] = target: Activin receptor type-1B (Homo sapiens, UniProt P36896); assay: Inhibition of ACVR1B
[4] = target: Mitogen-activated protein kinase kinase kinase 3 (Homo sapiens, UniProt Q99759); assay: Inhibition of MAP3K3
[5] = target: Casein kinase I isoform delta (Homo sapiens, UniProt P48730); assay: Inhibition of CSNK1D
[6] = target: Scaffold protein ILK (Homo sapiens, UniProt Q13418); assay: Inhibition of ILK
[7] = target: Glycogen synthase kinase-3 alpha (Homo sapiens, UniProt P49840); assay: Inhibition of GSK3A
[8] = target: Casein kinase I isoform gamma-1 (Homo sapiens, UniProt Q9HCP0); assay: Inhibition of CSNK1G1
[9] = target: Cytochrome P450 2D6 (Homo sapiens, UniProt P10635); assay: Inhibition of CYP2D6 at >20 uM; assay type: ADME
[10] = target: Ephrin type-B receptor 4 (Homo sapiens, UniProt P54760); assay: Inhibition of EPHB4
[11] = target: Mitogen-activated protein kinase kinase kinase 1 (Homo sapiens, UniProt Q13233); assay: Inhibition of MAP3K1
[12] = target: Tyrosine-protein kinase Tec (Homo sapiens, UniProt P42680); assay: Inhibition of TEC
[13] = target: Tyrosine-protein kinase Yes (Homo sapiens, UniProt P07947); assay: Inhibition of YES1
[14] = target: Atypical kinase COQ8A, mitochondrial (Homo sapiens, UniProt Q8NI60); assay: Inhibition of CABC1
Chain of Atypical kinase COQ8A, mitochondrial (Q8NI60 whole entry): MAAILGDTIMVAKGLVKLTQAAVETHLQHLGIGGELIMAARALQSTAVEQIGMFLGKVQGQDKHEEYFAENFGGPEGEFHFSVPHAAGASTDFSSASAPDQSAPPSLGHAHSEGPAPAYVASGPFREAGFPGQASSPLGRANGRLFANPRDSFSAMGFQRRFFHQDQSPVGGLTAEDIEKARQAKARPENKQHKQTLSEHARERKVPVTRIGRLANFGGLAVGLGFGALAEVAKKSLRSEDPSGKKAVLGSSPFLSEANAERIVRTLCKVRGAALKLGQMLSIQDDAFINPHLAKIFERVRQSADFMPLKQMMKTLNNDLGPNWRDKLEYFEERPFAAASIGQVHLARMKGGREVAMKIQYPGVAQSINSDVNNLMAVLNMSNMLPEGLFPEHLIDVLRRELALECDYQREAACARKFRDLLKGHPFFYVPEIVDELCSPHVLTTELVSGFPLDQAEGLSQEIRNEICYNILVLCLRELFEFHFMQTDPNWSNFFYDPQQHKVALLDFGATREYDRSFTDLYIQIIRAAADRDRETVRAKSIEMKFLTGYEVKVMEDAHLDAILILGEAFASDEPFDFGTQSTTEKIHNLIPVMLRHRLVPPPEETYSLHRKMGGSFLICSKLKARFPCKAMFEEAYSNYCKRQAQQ

[15] = target: Serine/threonine-protein kinase N1 (Homo sapiens, UniProt Q16512); assay: Inhibition of PKN1
[16] = target: Proto-oncogene tyrosine-protein kinase Src (Homo sapiens, UniProt P12931); assay: Inhibition of SRC
[17] = target: Serine/threonine-protein kinase NLK (Homo sapiens, UniProt Q9UBE8); assay: Inhibition of NLK
[18] = target: Tyrosine-protein kinase Fgr (Homo sapiens, UniProt P09769); assay: Inhibition of FGR
[19] = target: Casein kinase I isoform alpha (Homo sapiens, UniProt P48729); assay: Inhibition of CSNK1A1
[20] = target: Bromodomain-containing protein 3 (Homo sapiens, UniProt Q15059); assay: Inhibition of BRD3
[21] = target: Cyclin-dependent kinase 6 (Homo sapiens, UniProt Q00534); assay: Inhibition of CDK6
[22] = target: Protein kinase C beta type (Homo sapiens, UniProt P05771); assay: Inhibition of PRKCB
[23] = target: Non-receptor tyrosine-protein kinase TYK2 (Homo sapiens, UniProt P29597); assay: Inhibition of TYK2
[24] = target: Calcium/calmodulin-dependent protein kinase kinase 2 (Homo sapiens, UniProt Q96RR4); assay: Inhibition of CAMKK2
Chain of Calcium/calmodulin-dependent protein kinase kinase 2 (Q96RR4 whole entry): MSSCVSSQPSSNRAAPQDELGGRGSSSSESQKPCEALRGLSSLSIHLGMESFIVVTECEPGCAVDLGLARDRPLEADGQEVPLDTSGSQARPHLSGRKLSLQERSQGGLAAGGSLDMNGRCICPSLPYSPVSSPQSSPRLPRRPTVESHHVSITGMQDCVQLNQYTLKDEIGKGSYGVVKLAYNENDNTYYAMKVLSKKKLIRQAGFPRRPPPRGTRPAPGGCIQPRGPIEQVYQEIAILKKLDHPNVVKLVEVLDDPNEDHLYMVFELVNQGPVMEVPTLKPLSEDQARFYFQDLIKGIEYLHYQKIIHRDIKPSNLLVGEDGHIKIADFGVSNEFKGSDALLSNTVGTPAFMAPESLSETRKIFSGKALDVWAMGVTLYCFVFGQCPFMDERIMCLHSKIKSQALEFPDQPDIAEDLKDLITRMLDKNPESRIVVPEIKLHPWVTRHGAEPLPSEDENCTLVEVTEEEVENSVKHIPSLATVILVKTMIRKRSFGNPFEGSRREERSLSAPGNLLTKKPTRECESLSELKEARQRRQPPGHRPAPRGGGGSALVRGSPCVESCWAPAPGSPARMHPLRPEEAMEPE

[25] = target: Serine-protein kinase ATM (Homo sapiens, UniProt Q13315); assay: Inhibition of ATM
[26] = target: Casein kinase I isoform epsilon (Homo sapiens, UniProt P49674); assay: Inhibition of CSNK1E
[27] = target: Tyrosine-protein kinase ABL1 (Homo sapiens, UniProt P00519); assay: Inhibition of ABL1
[28] = target: Ephrin type-A receptor 3 (Homo sapiens, UniProt P29320); assay: Inhibition of EPHA3
Chain of Ephrin type-A receptor 3 (P29320 whole entry): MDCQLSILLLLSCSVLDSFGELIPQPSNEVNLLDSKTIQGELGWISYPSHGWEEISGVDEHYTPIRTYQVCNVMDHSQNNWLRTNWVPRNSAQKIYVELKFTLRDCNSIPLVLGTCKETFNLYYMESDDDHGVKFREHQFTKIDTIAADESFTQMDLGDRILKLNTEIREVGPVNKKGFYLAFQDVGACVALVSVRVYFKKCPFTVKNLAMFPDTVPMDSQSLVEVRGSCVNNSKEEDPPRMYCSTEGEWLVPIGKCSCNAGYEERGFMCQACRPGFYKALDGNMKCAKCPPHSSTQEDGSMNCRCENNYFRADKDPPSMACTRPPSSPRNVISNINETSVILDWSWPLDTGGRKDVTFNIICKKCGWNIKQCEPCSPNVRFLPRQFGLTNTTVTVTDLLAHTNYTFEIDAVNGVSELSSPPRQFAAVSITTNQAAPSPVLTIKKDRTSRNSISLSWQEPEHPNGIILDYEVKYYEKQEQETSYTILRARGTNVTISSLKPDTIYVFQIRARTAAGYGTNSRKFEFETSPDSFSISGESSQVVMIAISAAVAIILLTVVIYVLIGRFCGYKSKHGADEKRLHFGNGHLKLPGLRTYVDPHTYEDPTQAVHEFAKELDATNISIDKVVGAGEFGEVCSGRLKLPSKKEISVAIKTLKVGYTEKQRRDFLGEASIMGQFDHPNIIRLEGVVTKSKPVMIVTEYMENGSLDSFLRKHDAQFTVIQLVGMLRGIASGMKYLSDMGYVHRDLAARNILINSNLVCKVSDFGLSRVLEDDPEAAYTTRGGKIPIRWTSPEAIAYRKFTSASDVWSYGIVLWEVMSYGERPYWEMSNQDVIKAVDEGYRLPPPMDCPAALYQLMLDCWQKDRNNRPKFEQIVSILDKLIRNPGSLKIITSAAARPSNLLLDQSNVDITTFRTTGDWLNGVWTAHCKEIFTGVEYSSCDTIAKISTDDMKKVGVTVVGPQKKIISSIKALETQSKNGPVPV

[29] = target: Tyrosine-protein kinase FRK (Homo sapiens, UniProt P42685); assay: Inhibition of FRK
[30] = system: Mus musculus; assay: Antiarthritic activity against collagen-induced arthritis mouse model assessed as inhibition of disease progression at 3 mg/kg, po BID for 14 days; assay type: functional; conditions: 336 h
[31] = target: Mitogen-activated protein kinase kinase kinase 11 (Homo sapiens, UniProt Q16584); assay: Inhibition of MAP3K11
[32] = target: Activin receptor type-2A (Homo sapiens, UniProt P27037); assay: Inhibition of ACVR2A
Chain of Activin receptor type-2A (P27037 whole entry): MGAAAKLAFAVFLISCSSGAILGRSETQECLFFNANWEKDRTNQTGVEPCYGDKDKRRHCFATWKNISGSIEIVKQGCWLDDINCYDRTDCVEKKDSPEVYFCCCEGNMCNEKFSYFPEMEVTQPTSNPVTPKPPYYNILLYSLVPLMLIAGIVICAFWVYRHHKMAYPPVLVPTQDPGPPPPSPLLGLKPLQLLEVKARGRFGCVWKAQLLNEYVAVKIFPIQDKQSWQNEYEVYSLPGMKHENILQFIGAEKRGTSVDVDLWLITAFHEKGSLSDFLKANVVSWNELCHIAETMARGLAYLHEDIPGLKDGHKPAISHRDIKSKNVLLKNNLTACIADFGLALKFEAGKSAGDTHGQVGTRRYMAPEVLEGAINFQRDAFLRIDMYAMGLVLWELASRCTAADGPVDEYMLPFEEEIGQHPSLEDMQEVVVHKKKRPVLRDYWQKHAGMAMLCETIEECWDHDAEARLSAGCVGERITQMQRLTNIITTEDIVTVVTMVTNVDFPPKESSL

[33] = system: Mus musculus; assay: Antiarthritic activity against collagen-induced arthritis mouse model assessed as inhibition of disease progression at 10 mg/kg, po BID for 14 days; assay type: functional; conditions: 336 h
[34] = target: Phosphatidylinositol 4-kinase alpha (Homo sapiens, UniProt P42356); assay: Inhibition of PIK4Ca
[35] = target: Receptor-interacting serine/threonine-protein kinase 3 (Homo sapiens, UniProt Q9Y572); assay: Inhibition of RIPK3
Chain of Receptor-interacting serine/threonine-protein kinase 3 (Q9Y572 whole entry): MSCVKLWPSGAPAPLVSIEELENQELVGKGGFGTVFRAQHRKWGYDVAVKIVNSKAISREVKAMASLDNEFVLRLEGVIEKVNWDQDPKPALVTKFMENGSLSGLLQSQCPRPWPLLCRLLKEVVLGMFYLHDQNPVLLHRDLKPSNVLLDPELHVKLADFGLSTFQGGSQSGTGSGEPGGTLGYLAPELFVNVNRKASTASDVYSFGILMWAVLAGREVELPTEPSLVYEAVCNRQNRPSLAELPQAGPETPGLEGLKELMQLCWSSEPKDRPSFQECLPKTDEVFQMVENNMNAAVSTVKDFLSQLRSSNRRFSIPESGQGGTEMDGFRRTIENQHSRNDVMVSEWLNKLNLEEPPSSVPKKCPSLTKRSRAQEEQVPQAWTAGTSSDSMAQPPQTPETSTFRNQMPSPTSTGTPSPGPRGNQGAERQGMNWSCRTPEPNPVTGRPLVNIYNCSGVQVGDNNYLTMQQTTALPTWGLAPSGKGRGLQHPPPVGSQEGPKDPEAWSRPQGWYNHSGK

[36] = target: Tyrosine-protein kinase Fes/Fps (Homo sapiens, UniProt P07332); assay: Inhibition of FES
[37] = target: Tyrosine-protein kinase SYK (Homo sapiens, UniProt P43405); assay: Inhibition of SYK
[38] = target: Mitogen-activated protein kinase 9 (Homo sapiens) (UniProt P45984); assay: Inhibition of MAPK9
[39] = target: Mitogen-activated protein kinase 11 (Homo sapiens, UniProt Q15759); assay: Inhibition of MAPK11
[40] = target: Mitogen-activated protein kinase kinase kinase 2 (Homo sapiens, UniProt Q9Y2U5); assay: Inhibition of MAP3K2
[41] = target: Membrane-associated tyrosine- and threonine-specific cdc2-inhibitory kinase (Homo sapiens, UniProt Q99640); assay: Inhibition of PKMYT1
[42] = target: Casein kinase II subunit alpha' (Homo sapiens, UniProt P19784); assay: Inhibition of CK2a2
[43] = target: Phosphatidylinositol 4,5-bisphosphate 3-kinase catalytic subunit delta isoform/gamma isoform (Homo sapiens, UniProt P48736+O00329); assay: Inhibition of PI3Kgamma/delta by neutrophil migration assay
[44] = target: Calcium/calmodulin-dependent protein kinase type II subunit delta (Homo sapiens, UniProt Q13557); assay: Inhibition of CAMK2D
Chain of Calcium/calmodulin-dependent protein kinase type II subunit delta (Q13557 whole entry): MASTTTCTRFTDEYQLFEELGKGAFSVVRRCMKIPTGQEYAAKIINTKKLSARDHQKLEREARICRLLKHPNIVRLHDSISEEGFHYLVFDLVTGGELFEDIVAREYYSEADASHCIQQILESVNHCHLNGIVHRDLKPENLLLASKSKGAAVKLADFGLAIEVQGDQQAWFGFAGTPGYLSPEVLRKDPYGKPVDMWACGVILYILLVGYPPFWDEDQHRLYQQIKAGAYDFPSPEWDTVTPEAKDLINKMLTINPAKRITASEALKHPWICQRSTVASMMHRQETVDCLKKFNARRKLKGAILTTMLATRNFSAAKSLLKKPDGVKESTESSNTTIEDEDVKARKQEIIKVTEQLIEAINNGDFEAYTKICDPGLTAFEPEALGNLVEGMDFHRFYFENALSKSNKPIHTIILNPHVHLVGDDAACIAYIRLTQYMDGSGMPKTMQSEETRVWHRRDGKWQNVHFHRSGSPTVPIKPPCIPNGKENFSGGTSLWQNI

[45] = target: Serine/threonine-protein kinase Nek9 (Homo sapiens, UniProt Q8TD19); assay: Inhibition of NEK9
[46] = target: Cyclin-G-associated kinase (Homo sapiens, UniProt O14976); assay: Inhibition of GAK
[47] = target: Serine/threonine-protein kinase ULK3 (Homo sapiens, UniProt Q6PHR2); assay: Inhibition of ULK3
[48] = target: Phosphatidylinositol 4,5-bisphosphate 3-kinase catalytic subunit gamma isoform (Homo sapiens, UniProt P48736); assay: Inhibition of PI3Kgamma by kinobeads assay
[49] = target: Serine/threonine-protein kinase A-Raf (Homo sapiens, UniProt P10398); assay: Inhibition of ARAF
[50] = target: Ribosomal protein S6 kinase alpha-1 (Homo sapiens, UniProt Q15418); assay: Inhibition of RPS6KA1
[51] = target: Dual specificity testis-specific protein kinase 1 (Homo sapiens, UniProt Q15569); assay: Inhibition of TESK1
Chain of Dual specificity testis-specific protein kinase 1 (Q15569 whole entry): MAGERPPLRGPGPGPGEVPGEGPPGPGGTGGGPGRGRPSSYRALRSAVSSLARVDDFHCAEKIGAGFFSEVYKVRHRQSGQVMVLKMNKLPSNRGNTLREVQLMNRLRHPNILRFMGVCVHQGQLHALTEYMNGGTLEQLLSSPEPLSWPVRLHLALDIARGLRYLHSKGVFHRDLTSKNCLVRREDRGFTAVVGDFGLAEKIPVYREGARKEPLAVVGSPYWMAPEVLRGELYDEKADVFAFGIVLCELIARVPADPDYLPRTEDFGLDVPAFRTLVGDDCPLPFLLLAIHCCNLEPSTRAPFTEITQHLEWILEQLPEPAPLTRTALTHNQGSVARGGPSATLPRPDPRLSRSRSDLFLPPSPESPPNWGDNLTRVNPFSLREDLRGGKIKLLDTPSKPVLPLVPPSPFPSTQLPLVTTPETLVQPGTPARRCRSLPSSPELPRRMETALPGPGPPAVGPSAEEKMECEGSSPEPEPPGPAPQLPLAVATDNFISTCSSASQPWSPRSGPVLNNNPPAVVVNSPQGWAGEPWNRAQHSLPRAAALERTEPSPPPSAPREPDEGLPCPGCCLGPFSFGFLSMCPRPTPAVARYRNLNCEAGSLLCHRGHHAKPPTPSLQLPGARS

[52] = target: Dual specificity mitogen-activated protein kinase kinase 5 (Homo sapiens, UniProt Q13163); assay: Inhibition of MAP2K5
[53] = target: Mitogen-activated protein kinase 14 (Homo sapiens, UniProt Q16539); assay: Inhibition of MAPK14

Chain of Activin receptor type-1B (P36896 whole entry): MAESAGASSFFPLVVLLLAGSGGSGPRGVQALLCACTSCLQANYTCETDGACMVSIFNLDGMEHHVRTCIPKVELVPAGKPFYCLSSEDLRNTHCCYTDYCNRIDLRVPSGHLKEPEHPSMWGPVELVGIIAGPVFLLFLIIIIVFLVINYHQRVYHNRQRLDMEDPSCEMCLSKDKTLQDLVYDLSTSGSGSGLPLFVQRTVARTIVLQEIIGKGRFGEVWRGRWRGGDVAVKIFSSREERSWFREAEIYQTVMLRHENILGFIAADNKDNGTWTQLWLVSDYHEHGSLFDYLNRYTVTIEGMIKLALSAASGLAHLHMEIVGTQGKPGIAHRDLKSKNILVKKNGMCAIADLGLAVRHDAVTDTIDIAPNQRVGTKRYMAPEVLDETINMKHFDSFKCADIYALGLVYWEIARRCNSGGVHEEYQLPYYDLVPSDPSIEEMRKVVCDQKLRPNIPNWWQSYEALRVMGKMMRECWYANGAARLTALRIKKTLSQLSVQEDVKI

## CC(C)(C)NS(=O)(=O)c1cncc(-c2ccn3nc(N)nc3c2)c1
[1]
  IC50: > 10 µM
[2]
  IC50: > 10 µM
[3]
  IC50: > 10 µM
[4]
  IC50: > 10 µM
[5]
  IC50: > 10 µM
[6]
  IC50: > 10 µM
[7]
  IC50: > 10 µM
[8]
  IC50: 9.55 µM
[9]
  inhibition (INH): Active
[10]
  IC50: > 10 µM
[11]
  IC50: > 10 µM
[12]
  IC50: > 10 µM
[13]
  IC50: > 10 µM
[14]
  IC50: > 10 µM
[15]
  IC50: > 10 µM
[16]
  IC50: > 10 µM
[17]
  IC50: > 10 µM
[18]
  IC50: > 10 µM
[19]
  IC50: 9.12 µM
[20]
  IC50: > 10 µM
[21]
  IC50: > 10 µM
[22]
  IC50: > 10 µM
[23]
  IC50: > 10 µM
[24]
  IC50: > 10 µM
[25]
  IC50: > 10 µM
[26]
  IC50: > 10 µM
[27]
  IC50: > 10 µM
[28]
  IC50: > 10 µM
[29]
  IC50: > 10 µM
[30]
  inhibition in vivo at 3 mg/kg: 41%
[31]
  IC50: > 10 µM
[32]
  IC50: > 10 µM
[33]
  inhibition in vivo at 10 mg/kg: 46%
[34]
  IC50: > 5.89 µM
[35]
  IC50: > 10 µM
[36]
  IC50: > 10 µM
[37]
  IC50: > 10 µM
[38]
  IC50: > 10 µM
[39]
  IC50: > 10 µM
[40]
  IC50: > 10 µM
[41]
  IC50: > 10 µM
[42]
  IC50: > 10 µM
[43]
  pIC50: 6.3
[44]
  IC50: > 10 µM
[45]
  IC50: > 10 µM
[46]
  IC50: > 10 µM
[47]
  IC50: > 10 µM
[48]
  IC50: 0.0126 µM
[49]
  IC50: > 10 µM
[50]
  IC50: > 10 µM
[51]
  IC50: > 10 µM
[52]
  IC50: > 10 µM
[53]
  IC50: > 10 µM
